Measurements published in US5229288A, “Cytotoxicity test method” (priority 1990, dated 1993).
Numbered stars: 1 amine (or outer) side, 2 acyl side, 3 side chain; on linkers, the order of the positions; unused ones are H or OH. Bridge positions count the residues as written; N and C are the ends. Square brackets hold non-standard residues; d marks the D form. Peptide text beside a SMILES is read from it. I, II: the chains in the order shown. Actinocin(9to1) = Cc1c2oc3c(C)ccc(C(=O)[*:1])c3nc-2c(C(=O)[*:2])c(N)c1=O; NMeV = CN[C@H](C(=O)O)C(C)C; Sar = CNCC(=O)O

Tests used:
in vitro = details: human, skin fibroblasts
Description: (§1) N-Isopropylacrylamide monomer (here "NIPAAm", a product of Eastman Kodak Co.) 50 g was dissolved in 500 ml benzene. 2,2'-Azobisisobutyronitrile (here "AIBN") 0.2 g was used as the polymerization initiator. Polymerization was carried out at 60° C. for 12 hours in a stream of nitrogen gas with constant agitation. The polymer thus obtained was precipitated in benzene and after decantation the precipitates formed were dissolved in tetrahydrofuran and purified with ethyl ether. […] This mixed solution was poured on the bottom of a commercially available plastic culture dish (Falcon, 35 mm), and it was air-dried aseptically in a clean bench at about 10° C. […] Fibroblasts derived from human skin were suspended in Dulbecco's modified Eagle medium ("DMEM", a product of GIBCO, containing 10% (w/v) calf serum) (cell concentration in the suspension: about 2×10^5 cells/ml). Two milliliters of this cell suspension was incubated at 37° C., and then it was poured in the coated dish which was pre-incubated at 37° C. It was cultured at 37° C. for 3 days in an air/5 volume% CO2 gas incubator. After 3 days at which point the cultured cells covered the surface of the bottom of the dish completely, the dish was taken out from the 37° C. incubator and left to stand at 4° C. on ice. After the cell sheet was completely detached from the surface of the bottom of the dish, the old medium was discarded and the sheet was washed twice with fresh medium at 4° C. to remove the dissolved polymer and the collagen.
(§2) During the shrinking process, the cell aggregate was examined at different times by a phase contrast microscope. Size (average values of longer diameter and shorter diameter) of the cell aggregate was measured, and % shrinkage which is a relative value considering the diameter of the cell sheet immediately after the detachment as 100% was calculated, and the results were plotted against time as shown in FIG. 1.
(§3) After a cell sheet was detached and transferred onto a hydrophobic dish in the same manner as in the Control Example, cycloheximide (here "CH") was added to the culture medium for the cell sheet to bring the concentration to 0.3 and 3μg/ml of medium, respectively. The shrinkage process of the detached cell sheet was examined by the phase contrast microscopy while the cell sheet was cultured in the culture medium containing CH in the hydrophobic dish. […] At the second day after detachment, as shown in FIG. 2A by an arrow sign, the added CH was completely removed by washing the cell aggregate with fresh culture medium and then transferring it into the vessel containing fresh culture medium.
(§4) Twelve hours before a cell sheet was detached from the cell culture substrate and transferred onto a hydrophobic dish in the same manner as in Control Example, actinomycin D (here "AD") was added to the culture medium to bring the concentration to 0.003 and 0.03 μg/ml of medium, respectively. Then the shrinkage process of the detached cell sheet was examined by phase contrast microscopy while the detached cell sheet was cultured in the culture medium containing 0.003 and 0.03 μg/ml (medium) of AD, respectively, in the hydrophobic dish.

[1] = system: fibroblasts derived from human skin; assay: shrinkage of detached cell sheet to spherical cell aggregate (cytotoxicity test method of the invention), phase contrast microscopy
Description: as §1, §2, §3, §4

[2] = conventional monolayer culture on plastic tissue culture dish, morphological change under phase contrast microscope (Comparative Example); assay type: cell-based, human; details: human, skin fibroblasts; conventional monolayer culture; read-out: concentration for the detection of cytotoxicity by conventional monolayer culture
Description: (§5) The fibroblasts derived from human skin as used in Example 1 were cultured for 3 days on a plastic tissue culture dish (Falcon, 35 mm), and then cycloheximide and actinomycin D were added, respectively, in such an amount that the concentration of the medium would be 10 μg/ml, and the morphological change of the cells was examined under a phase contrast microscope. […] In contrast, the concentration for the detection of cytotoxicity by the conventional monolayer culture such as shown in this Comparative Example was higher than 10 μg/ml.

[3] = system: fibroblasts derived from human skin; assay: as above; assay type: cell-based; details: 10 μg/ml, monolayer cultured for 3 days before addition
Description: as §5

[4] = AD more than 0.03 μg/ml, added twelve hours before detachment, FIG. 2B
[5] = CH more than 3 μg/ml, added after detachment and transfer, FIG. 2A

Row | SMILES | MCC (in vitro) | formation of spherical cell aggregate [1, 4] | shrinkage behavior of phase II (0.5 th to second day after detachment) [1, 4] | shrinkage after removal of AD (reversibility) ([1]; AD removed by washing at second day after detachment, FIG. 2B) | concentration of AD which inhibits phase II relative to that of CH ([1]; ratio AD to CH) | MCC [2] | morphological change of the cells [3] | formation of spherical cell aggregate [1, 5] | shrinkage behavior of phase II (0.5 th to second day after detachment) [1, 5] | shrinkage after removal of CH (reversibility) ([1]; CH removed by washing at second day after detachment, FIG. 2A)
1 | Cc1c2oc3c(C)ccc(C(=O)N[C@@H]4C(=O)N[C@H](C(C)C)C(=O)N5CCC[C@H]5C(=O)N(C)CC(=O)N(C)[C@@H](C(C)C)C(=O)O[C@@H]4C)c3nc-2c(C(=O)N[C@@H]2C(=O)N[C@H](C(C)C)C(=O)N3CCC[C@H]3C(=O)N(C)CC(=O)N(C)[C@@H](C(C)C)C(=O)O[C@@H]2C)c(N)c1=O [AD, actinomycin D] (I: T[dV]P[Sar][NMeV] / II: T[dV]P[Sar][NMeV]; ester I:1-I:C, II:1-II:C; linker I:N-II:N via Actinocin(9to1)) | 0.03 µg/mL | no formation of any spherical cell aggregate was observed | significantly interrupted | the shrinkage started again | about 1/100 | > 10 µg/mL | No morphological change was observed at all |  |  | 
2 | C[C@@H]1C[C@@H]([C@H](O)CC2CC(=O)NC(=O)C2)C(=O)[C@@H](C)C1 [CH, cycloheximide] | 3 µg/mL |  |  |  |  | > 10 µg/mL | No morphological change was observed at all | no formation of any spherical cell aggregate was observed | completely interrupted | the shrinkage started again
